{
  "source": "patent US11634404B2",
  "about": "(priority 2016, dated 2023)",
  "assay_type_in_all_cases": "cell-based",
  "key": {"panel of 168 GPCRs [1]": {"molecular_target": "panel of 168 GPCRs (Homo sapiens, UniProt P28223)", "settings": "GPCR HTR2A; agonist, 10 μM"}, "panel of 168 GPCRs [2]": {"molecular_target": "panel of 168 GPCRs (Homo sapiens, UniProt O95977)", "settings": "GPCR EDG6; agonist, 10 μM"}, "panel of 168 GPCRs [3]": {"molecular_target": "panel of 168 GPCRs (Homo sapiens, UniProt Q13324)", "settings": "GPCR CRHR2; agonist, 10 μM"}, "panel of 168 GPCRs [4]": {"molecular_target": "panel of 168 GPCRs (Homo sapiens, UniProt Q5NUL3)", "settings": "GPCR GPR120; agonist, 10 μM"}, "panel of 168 GPCRs [5]": {"molecular_target": "panel of 168 GPCRs (Homo sapiens, UniProt Q9H3N8)", "settings": "GPCR HRH4; agonist, 10 μM"}, "panel of 168 GPCRs [6]": {"molecular_target": "panel of 168 GPCRs (Homo sapiens, UniProt P30518)", "settings": "GPCR AVPR2; agonist, 10 μM"}, "panel of 168 GPCRs [7]": {"molecular_target": "panel of 168 GPCRs (Homo sapiens, UniProt P21728)", "settings": "GPCR DRD1; agonist, 10 μM"}, "panel of 168 GPCRs [8]": {"molecular_target": "panel of 168 GPCRs (Homo sapiens, UniProt P08908)", "settings": "GPCR HTR1A; agonist, 10 μM"}, "panel of 168 GPCRs [9]": {"molecular_target": "panel of 168 GPCRs (Homo sapiens, UniProt P43115)", "settings": "GPCR PTGER3; agonist, 10 μM"}, "panel of 168 GPCRs [10]": {"molecular_target": "panel of 168 GPCRs (Homo sapiens, UniProt P49683)", "settings": "GPCR PRLHR; agonist, 10 μM"}, "panel of 168 GPCRs [11]": {"molecular_target": "panel of 168 GPCRs (Homo sapiens, UniProt P21554)", "settings": "GPCR CNR1; agonist, 10 μM"}, "panel of 168 GPCRs [12]": {"molecular_target": "panel of 168 GPCRs (Homo sapiens, UniProt P25025)", "settings": "GPCR CXCR2; agonist, 10 μM"}, "panel of 168 GPCRs [13]": {"molecular_target": "panel of 168 GPCRs (Homo sapiens, UniProt P28566)", "settings": "GPCR HTR1E; agonist, 10 μM"}, "panel of 168 GPCRs [14]": {"molecular_target": "panel of 168 GPCRs (Homo sapiens, UniProt P51681)", "settings": "GPCR CCR5; agonist, 10 μM"}, "panel of 168 GPCRs [15]": {"molecular_target": "panel of 168 GPCRs (Homo sapiens, UniProt Q9GZQ6)", "settings": "GPCR NPFFR1; agonist, 10 μM"}, "panel of 168 GPCRs [16]": {"molecular_target": "panel of 168 GPCRs (Homo sapiens, UniProt P21462)", "settings": "GPCR FPR1; agonist, 10 μM"}, "panel of 168 GPCRs [17]": {"molecular_target": "panel of 168 GPCRs (Homo sapiens, UniProt P35367)", "settings": "GPCR HRH1; agonist, 10 μM"}, "panel of 168 GPCRs [18]": {"molecular_target": "panel of 168 GPCRs (Homo sapiens, UniProt P48146)", "settings": "GPCR NPBWR2; agonist, 10 μM"}, "panel of 168 GPCRs [19]": {"molecular_target": "panel of 168 GPCRs (Homo sapiens, UniProt Q9Y5N1)", "settings": "GPCR HRH3; agonist, 10 μM"}, "panel of 168 GPCRs [20]": {"molecular_target": "panel of 168 GPCRs (Homo sapiens, UniProt Q9UKP6)", "settings": "GPCR UTR2; agonist, 10 μM"}, "panel of 168 GPCRs [21]": {"molecular_target": "panel of 168 GPCRs (Homo sapiens, UniProt Q16581)", "settings": "GPCR C3AR1; agonist, 10 μM"}, "panel of 168 GPCRs [22]": {"molecular_target": "panel of 168 GPCRs (Homo sapiens, UniProt P61073)", "settings": "GPCR CXCR4; agonist, 10 μM"}, "panel of 168 GPCRs [23]": {"molecular_target": "panel of 168 GPCRs (Homo sapiens, UniProt P41597)", "settings": "GPCR CCR2; agonist, 10 μM"}, "panel of 168 GPCRs [24]": {"molecular_target": "panel of 168 GPCRs (Homo sapiens, UniProt P28335)", "sequence (P28335 33-458 limits assumed)": "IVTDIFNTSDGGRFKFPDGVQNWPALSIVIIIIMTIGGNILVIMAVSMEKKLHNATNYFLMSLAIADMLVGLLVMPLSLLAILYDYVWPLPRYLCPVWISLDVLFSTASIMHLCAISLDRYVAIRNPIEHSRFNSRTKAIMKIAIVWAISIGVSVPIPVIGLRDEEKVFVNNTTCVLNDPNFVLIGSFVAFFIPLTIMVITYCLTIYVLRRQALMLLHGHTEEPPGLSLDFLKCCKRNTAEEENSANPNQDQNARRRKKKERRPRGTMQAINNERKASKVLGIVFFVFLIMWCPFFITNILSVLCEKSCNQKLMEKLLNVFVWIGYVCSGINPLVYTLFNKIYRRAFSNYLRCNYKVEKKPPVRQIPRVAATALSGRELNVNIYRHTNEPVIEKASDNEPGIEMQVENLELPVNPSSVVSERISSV", "settings": "GPCR HTR2C; agonist, 10 μM"}, "panel of 168 GPCRs [25]": {"molecular_target": "panel of 168 GPCRs (Homo sapiens, UniProt P33032)", "settings": "GPCR MC5R; agonist, 10 μM"}, "panel of 168 GPCRs [26]": {"molecular_target": "panel of 168 GPCRs (Homo sapiens, UniProt P25021)", "settings": "GPCR HRH2; agonist, 10 μM"}, "panel of 168 GPCRs [27]": {"molecular_target": "panel of 168 GPCRs (Homo sapiens, UniProt P47211)", "settings": "GPCR GALR1; agonist, 10 μM"}, "panel of 168 GPCRs [28]": {"molecular_target": "panel of 168 GPCRs (Homo sapiens, UniProt P41586)", "sequence (P41586 21-468 limits assumed)": "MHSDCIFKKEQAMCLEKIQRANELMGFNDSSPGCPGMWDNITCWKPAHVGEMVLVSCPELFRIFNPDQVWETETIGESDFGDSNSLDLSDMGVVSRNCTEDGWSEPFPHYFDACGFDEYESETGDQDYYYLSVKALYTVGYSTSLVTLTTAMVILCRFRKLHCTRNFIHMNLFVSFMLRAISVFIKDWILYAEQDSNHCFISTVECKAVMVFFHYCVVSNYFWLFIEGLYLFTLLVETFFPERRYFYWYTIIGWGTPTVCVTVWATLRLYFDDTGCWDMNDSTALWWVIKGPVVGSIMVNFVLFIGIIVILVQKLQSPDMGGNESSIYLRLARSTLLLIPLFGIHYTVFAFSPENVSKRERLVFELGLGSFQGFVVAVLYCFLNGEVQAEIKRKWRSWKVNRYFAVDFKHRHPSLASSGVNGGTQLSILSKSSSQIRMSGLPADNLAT", "settings": "GPCR ADCYAP1R1; agonist, 10 μM"}, "panel of 168 GPCRs [29]": {"molecular_target": "panel of 168 GPCRs (Homo sapiens, UniProt O95838)", "settings": "GPCR GLP2R; agonist, 10 μM"}, "panel of 168 GPCRs [30]": {"molecular_target": "panel of 168 GPCRs (Homo sapiens, UniProt Q9UBY5)", "settings": "GPCR EDG7; agonist, 10 μM"}, "panel of 168 GPCRs [31]": {"molecular_target": "panel of 168 GPCRs (Homo sapiens, UniProt P23945)", "sequence (P23945 18-695 limits assumed)": "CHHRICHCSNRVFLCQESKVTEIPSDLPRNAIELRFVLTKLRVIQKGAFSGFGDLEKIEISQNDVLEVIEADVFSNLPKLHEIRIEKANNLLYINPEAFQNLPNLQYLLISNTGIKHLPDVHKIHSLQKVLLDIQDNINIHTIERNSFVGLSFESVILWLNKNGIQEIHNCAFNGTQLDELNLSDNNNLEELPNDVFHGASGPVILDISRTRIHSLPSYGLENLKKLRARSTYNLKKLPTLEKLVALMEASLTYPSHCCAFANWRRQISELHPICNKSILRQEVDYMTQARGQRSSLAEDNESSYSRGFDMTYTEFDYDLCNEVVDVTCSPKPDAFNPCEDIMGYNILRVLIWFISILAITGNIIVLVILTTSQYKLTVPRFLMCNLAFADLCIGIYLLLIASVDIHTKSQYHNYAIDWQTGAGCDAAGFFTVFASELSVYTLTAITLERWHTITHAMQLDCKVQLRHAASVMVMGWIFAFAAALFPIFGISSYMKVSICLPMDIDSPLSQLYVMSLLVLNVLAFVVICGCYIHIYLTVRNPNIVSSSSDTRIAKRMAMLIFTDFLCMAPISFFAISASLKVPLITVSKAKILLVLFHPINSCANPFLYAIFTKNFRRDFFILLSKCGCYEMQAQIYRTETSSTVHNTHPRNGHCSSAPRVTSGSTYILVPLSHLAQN", "settings": "GPCR FSHR; agonist, 10 μM"}, "panel of 168 GPCRs [32]": {"molecular_target": "panel of 168 GPCRs (Homo sapiens, UniProt Q92847)", "settings": "GPCR GHSR; agonist, 10 μM"}},
  "data": [
    {"smiles": "COc1ccc(OCCN2CCN(C(=O)c3cc4ccccc4[nH]3)CC2)cc1", "note": "[Compound 1, (1H-indol-2-yl)(4-(2-(4-methoxyphenoxy)ethyl)piperazin-1-yl)methanone]", "values": [
      {"measurement": "β-Arrestin Recruitment activity", "setting": "panel of 168 GPCRs [1]", "value": 4, "unit": "%"},
      {"measurement": "β-Arrestin Recruitment activity", "setting": "panel of 168 GPCRs [2]", "value": 17, "unit": "%"},
      {"measurement": "β-Arrestin Recruitment activity", "setting": "panel of 168 GPCRs [3]", "value": 0, "unit": "%"},
      {"measurement": "β-Arrestin Recruitment activity", "setting": "panel of 168 GPCRs [4]", "value": 12, "unit": "%"},
      {"measurement": "β-Arrestin Recruitment activity", "setting": "panel of 168 GPCRs [5]", "value": 8, "unit": "%"},
      {"measurement": "β-Arrestin Recruitment activity", "setting": "panel of 168 GPCRs [6]", "value": 4, "unit": "%"},
      {"measurement": "β-Arrestin Recruitment activity", "setting": "panel of 168 GPCRs [7]", "value": 0, "unit": "%"},
      {"measurement": "β-Arrestin Recruitment activity", "setting": "panel of 168 GPCRs [8]", "value": 8, "unit": "%"},
      {"measurement": "β-Arrestin Recruitment activity", "setting": "panel of 168 GPCRs [9]", "value": 3, "unit": "%"},
      {"measurement": "β-Arrestin Recruitment activity", "setting": "panel of 168 GPCRs [10]", "value": 4, "unit": "%"},
      {"measurement": "β-Arrestin Recruitment activity", "setting": "panel of 168 GPCRs [11]", "value": 5, "unit": "%"},
      {"measurement": "β-Arrestin Recruitment activity", "setting": "panel of 168 GPCRs [12]", "value": 6, "unit": "%"},
      {"measurement": "β-Arrestin Recruitment activity", "setting": "panel of 168 GPCRs [13]", "value": 4, "unit": "%"},
      {"measurement": "β-Arrestin Recruitment activity", "setting": "panel of 168 GPCRs [14]", "value": 0, "unit": "%"},
      {"measurement": "β-Arrestin Recruitment activity", "setting": "panel of 168 GPCRs [15]", "value": 4, "unit": "%"},
      {"measurement": "β-Arrestin Recruitment activity", "setting": "panel of 168 GPCRs [16]", "value": 5, "unit": "%"},
      {"measurement": "β-Arrestin Recruitment activity", "setting": "panel of 168 GPCRs [17]", "value": 0, "unit": "%"},
      {"measurement": "β-Arrestin Recruitment activity", "setting": "panel of 168 GPCRs [18]", "value": 3, "unit": "%"},
      {"measurement": "β-Arrestin Recruitment activity", "setting": "panel of 168 GPCRs [19]", "value": 3, "unit": "%"},
      {"measurement": "β-Arrestin Recruitment activity", "setting": "panel of 168 GPCRs [20]", "value": 0, "unit": "%"},
      {"measurement": "β-Arrestin Recruitment activity", "setting": "panel of 168 GPCRs [21]", "value": 0, "unit": "%"},
      {"measurement": "β-Arrestin Recruitment activity", "setting": "panel of 168 GPCRs [22]", "value": 17, "unit": "%"},
      {"measurement": "β-Arrestin Recruitment activity", "setting": "panel of 168 GPCRs [23]", "value": 4, "unit": "%"},
      {"measurement": "β-Arrestin Recruitment activity", "setting": "panel of 168 GPCRs [24]", "value": 6, "unit": "%"},
      {"measurement": "β-Arrestin Recruitment activity", "setting": "panel of 168 GPCRs [25]", "value": 5, "unit": "%"},
      {"measurement": "β-Arrestin Recruitment activity", "setting": "panel of 168 GPCRs [26]", "value": 3, "unit": "%"},
      {"measurement": "β-Arrestin Recruitment activity", "setting": "panel of 168 GPCRs [27]", "value": 4, "unit": "%"},
      {"measurement": "β-Arrestin Recruitment activity", "setting": "panel of 168 GPCRs [28]", "value": 6, "unit": "%"},
      {"measurement": "β-Arrestin Recruitment activity", "setting": "panel of 168 GPCRs [29]", "value": 0, "unit": "%"},
      {"measurement": "β-Arrestin Recruitment activity", "setting": "panel of 168 GPCRs [30]", "value": 6, "unit": "%"},
      {"measurement": "β-Arrestin Recruitment activity", "setting": "panel of 168 GPCRs [31]", "value": 5, "unit": "%"},
      {"measurement": "β-Arrestin Recruitment activity", "setting": "panel of 168 GPCRs [32]", "value": "−3", "unit": "%"}
    ]}
  ]
}
